Several values for one entry are separate records, joined by “and”; a condition that tells them apart may be missing. Identical values can stand only once. Toxic doses and inconclusive results are not listed. No stated cut-off is given here; in the data, active means T/C of 150% or more; inactive means T/C below 125%.
Test system: L1210 leukemia ip in BDF1 mice, survival T/C
Assay: NCI In Vivo Anticancer Drug Screen. Data for tumor model L1210 Leukemia (intraperitoneal) in B6D2F1 (BDF1) mice
Settings: endpoint: mean survival time, higher = longer survival
In short: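 Value reflects the ratio of survival in compound-treated mice to survival in vehicle-treated controls, with both groups carrying the same transplanted tumor.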

[1] = dose: 100.0 mg/kg/injection, schedule: Q01DX001 (ip), vehicle: saline
[2] = dose: 200.0 mg/kg/injection, schedule: Q01DX001 (ip), vehicle: saline
[3] = dose: 400.0 mg/kg/injection, schedule: Q01DX001 (ip), vehicle: saline
[4] = dose: 100.0 mg/kg/injection, schedule: Q04DX003 (ip), vehicle: saline with Tween-80
[5] = dose: 400.0 mg/kg/injection, schedule: Q04DX003 (ip), vehicle: saline with Tween-80
[6] = dose: 100.0 mg/kg/injection, schedule: Q01DX009 (ip), vehicle: saline with Tween-80
[7] = dose: 100.0 mg/kg/injection, schedule: Q04DX003 (ip), vehicle: Klucel (hydroxypropylcellulose) (HPC)
[8] = dose: 200.0 mg/kg/injection, schedule: Q04DX003 (ip), vehicle: Klucel (hydroxypropylcellulose) (HPC)
[9] = dose: 400.0 mg/kg/injection, schedule: Q04DX003 (ip), vehicle: Klucel (hydroxypropylcellulose) (HPC)
[10] = dose: 50.0 mg/kg/injection, schedule: Q01DX009 (ip), vehicle: Klucel (hydroxypropylcellulose) (HPC)
[11] = dose: 100.0 mg/kg/injection, schedule: Q01DX009 (ip), vehicle: Klucel (hydroxypropylcellulose) (HPC)
[12] = dose: 200.0 mg/kg/injection, schedule: Q01DX009 (ip), vehicle: Klucel (hydroxypropylcellulose) (HPC)
[13] = dose: 100.0 mg/kg/injection, schedule: Q01DX Z (ip), vehicle: carboxymethylcellulose (CMC)
[14] = dose: 25.0 mg/kg/injection, schedule: Q01DX009 (ip), vehicle: saline with Tween-80
[15] = dose: 50.0 mg/kg/injection, schedule: Q01DX009 (ip), vehicle: saline with Tween-80
[16] = dose: 200.0 mg/kg/injection, schedule: Q01DX001 (ip), vehicle: saline with Tween-80
[17] = dose: 200.0 mg/kg/injection, schedule: Q04DX003 (ip), vehicle: saline with Tween-80

Measured: T/C

O=S(=O)(O)c1cccnc1
inactive: dose: 19.63 mg/kg/injection, schedule: Q01DX Z (ip), vehicle: carboxymethylcellulose (CMC) 102 % of control | dose: 39.25 mg/kg/injection, schedule: Q01DX Z (ip), vehicle: carboxymethylcellulose (CMC) 93 % of control | dose: 78.5 mg/kg/injection, schedule: Q01DX Z (ip), vehicle: carboxymethylcellulose (CMC) 92 % of control | [1] 102 % of control | dose: 157.0 mg/kg/injection, schedule: Q01DX Z (ip), vehicle: carboxymethylcellulose (CMC) 91 % of control | [2] 98 % of control | [3] 98 % of control

NC(=S)N/N=C/c1ccc(OC(=O)COc2ccccc2Cl)cn1
inactive: [4] 124 % of control | [5] 93 % of control

CCOC(=O)CCc1c(C)c2ccc(O)cc2oc1=O
inactive: [1] 98 % of control | [2] 104 % of control | [3] 94 % of control

NC(=O)c1ncc(-c2ccc(Cl)cc2)[nH]c1=O
inactive: [6] 91 % of control | dose: 200.0 mg/kg/injection, schedule: Q01DX009 (ip), vehicle: saline with Tween-80 97 % of control | dose: 400.0 mg/kg/injection, schedule: Q01DX009 (ip), vehicle: saline with Tween-80 97 % of control

COc1ccc(OC)c(C(=O)CCCCC(=O)O)c1
inactive: [7] 95 % of control | [8] 93 % of control | [9] 104 % of control

Cc1ccc2c(ccc(/C=C/c3ccc(O)c4ccccc34)[n+]2C)c1
inactive: dose: 75.0 mg/kg/injection, schedule: Q01DX001 (ip), vehicle: carboxymethylcellulose (CMC) 95 % of control | dose: 150.0 mg/kg/injection, schedule: Q01DX001 (ip), vehicle: carboxymethylcellulose (CMC) 97 % of control | dose: 300.0 mg/kg/injection, schedule: Q01DX001 (ip), vehicle: carboxymethylcellulose (CMC) 96 % of control

O=C(NNc1ccccc1)c1ccccc1
inactive: [10] 101 % of control | [11] 101 % of control | [7] 94 % of control | dose: 100.0 mg/kg/injection, schedule: Q04DX003 (ip), vehicle: saline 100 % of control | [12] 110 % of control | [8] 107 % of control | dose: 200.0 mg/kg/injection, schedule: Q04DX003 (ip), vehicle: saline 103 % of control | [9] 100 % of control | dose: 400.0 mg/kg/injection, schedule: Q04DX003 (ip), vehicle: saline 93 % of control

CCCC(CC#N)(CCC)CCC
inactive: dose: 37.5 mg/kg/injection, schedule: Q01DX Z (ip), vehicle: carboxymethylcellulose (CMC) 97 % of control | dose: 75.0 mg/kg/injection, schedule: Q01DX Z (ip), vehicle: carboxymethylcellulose (CMC) 101 % of control | [13] 95 % of control | dose: 200.0 mg/kg/injection, schedule: Q01DX Z (ip), vehicle: carboxymethylcellulose (CMC) 100 % of control

CCCCCC(=O)C(CCCC)C(=O)Nc1ccccc1 (stereo unspecified)
inactive: dose: 100.0 mg/kg/injection, schedule: Q01DX001 (ip), vehicle: carboxymethylcellulose (CMC) 96 % of control | dose: 200.0 mg/kg/injection, schedule: Q01DX001 (ip), vehicle: carboxymethylcellulose (CMC) 91 % of control | dose: 400.0 mg/kg/injection, schedule: Q01DX001 (ip), vehicle: carboxymethylcellulose (CMC) 91 % of control

Cc1ccc(S(=O)(=O)OCC2OC3(COS(=O)(=O)c4ccc(C)cc4)OC(C)(C)OC3C2O)cc1 (stereo unspecified)
inactive: [14] 92 % of control | [15] 87 % of control | [6] 87 % of control

Cc1[nH]c(C(=O)OCc2ccccc2)c(C)c1C(=O)OCc1ccccc1
inactive: dose: 12.0 mg/kg/injection, schedule: Q01DX001 (ip), vehicle: Klucel (hydroxypropylcellulose) (HPC) 94 % of control | dose: 25.0 mg/kg/injection, schedule: Q01DX001 (ip), vehicle: Klucel (hydroxypropylcellulose) (HPC) 100 % of control | dose: 50.0 mg/kg/injection, schedule: Q01DX001 (ip), vehicle: Klucel (hydroxypropylcellulose) (HPC) 97 % of control | [16] 102 % of control | dose: 400.0 mg/kg/injection, schedule: Q01DX001 (ip), vehicle: saline with Tween-80 102 % of control

CNC(=O)NNC(=O)CNC(=O)Nc1ccc(Cl)c(Cl)c1
inactive: [11] 106 % of control | [12] 93 % of control | dose: 400.0 mg/kg/injection, schedule: Q01DX009 (ip), vehicle: Klucel (hydroxypropylcellulose) (HPC) 97 % of control

CC(=O)OC1CC(OC2C(O)CC(OC3C(O)CC(OC4CCC5(C)C(CCC6C5CC(O)C5(C)C(C7=CC(=O)OC7)CCC65O)C4)OC3C)OC2C)OC(C)C1OC1OC(CO)C(O)C(O)C1O (stereo unspecified)
inactive: dose: 50.0 mg/kg/injection, schedule: Q01DX001 (sc), vehicle: steriod suspending solution 100 % of control | dose: 75.0 mg/kg/injection, schedule: Q01DX001 (ip), vehicle: other 95 % of control | dose: 100.0 mg/kg/injection, schedule: Q01DX001 (sc), vehicle: steriod suspending solution 109 % of control | dose: 150.0 mg/kg/injection, schedule: Q01DX001 (ip), vehicle: other 97 % of control | dose: 200.0 mg/kg/injection, schedule: Q01DX001 (sc), vehicle: steriod suspending solution 103 % of control | dose: 300.0 mg/kg/injection, schedule: Q01DX001 (ip), vehicle: other 93 % of control | dose: 400.0 mg/kg/injection, schedule: Q01DX001 (sc), vehicle: steriod suspending solution 105 % of control

C(=C\n1ccnc1)/c1ccccc1
inactive: dose: 100.0 mg/kg/injection, schedule: Q04DX003 (ip), vehicle: gum acacia 97 % of control | dose: 200.0 mg/kg/injection, schedule: Q04DX003 (ip), vehicle: gum acacia 87 % of control

O=C(O)COc1cc(Cl)ccn1
inactive: dose: 100.0 mg/kg/injection, schedule: Q04DX002 (ip), vehicle: Klucel (hydroxypropylcellulose) (HPC) 100 % of control | dose: 200.0 mg/kg/injection, schedule: Q04DX002 (ip), vehicle: Klucel (hydroxypropylcellulose) (HPC) 93 % of control | dose: 400.0 mg/kg/injection, schedule: Q04DX002 (ip), vehicle: Klucel (hydroxypropylcellulose) (HPC) 110 % of control

Cc1ccc(NC(=S)NC(=O)/C=C/c2ccccc2)cc1Cl
inactive: [14] 94 % of control | [15] 96 % of control and 86 % of control | dose: 100.0 mg/kg/injection, schedule: Q01DX001 (ip), vehicle: saline with Tween-80 87 % of control | dose: 100.0 mg/kg/injection, schedule: Q04DX002 (ip), vehicle: saline with Tween-80 97 % of control | [16] 87 % of control | dose: 200.0 mg/kg/injection, schedule: Q04DX002 (ip), vehicle: saline with Tween-80 87 % of control and 89 % of control | dose: 400.0 mg/kg/injection, schedule: Q04DX002 (ip), vehicle: saline with Tween-80 87 % of control and 89 % of control

Nc1nc(N)c(N=O)c(Nc2ccc(Cl)c(Cl)c2)n1
inactive: dose: 3.12 mg/kg/injection, schedule: Q01DX Z (ip), vehicle: carboxymethylcellulose (CMC) 117 % of control | dose: 6.25 mg/kg/injection, schedule: Q01DX Z (ip), vehicle: carboxymethylcellulose (CMC) 104 % of control | dose: 12.5 mg/kg/injection, schedule: Q01DX Z (ip), vehicle: carboxymethylcellulose (CMC) 106 % of control | dose: 25.0 mg/kg/injection, schedule: Q01DX Z (ip), vehicle: carboxymethylcellulose (CMC) 109 % of control | [13] 89 % of control | dose: 400.0 mg/kg/injection, schedule: Q01DX Z (ip), vehicle: carboxymethylcellulose (CMC) 86 % of control

O=[N+]([O-])c1[nH]cnc1S(=O)(=O)Cl
inactive: [1] 94 % of control | [2] 94 % of control | [3] 97 % of control

Clc1[nH]cnc1Br
inactive: [4] 107 % of control | [17] 93 % of control | [5] 104 % of control

ClCCOCCOc1ccccc1
inactive: [4] 96 % of control | [17] 100 % of control | [5] 101 % of control

Cc1cccc(CCSCCc2cccc(C)[n+]2[O-])[n+]1[O-]
inactive: [1] 96 % of control | [2] 92 % of control

CCOC(=O)c1ccc[n+](CCCl)c1
inactive: dose: 10.0 mg/kg/injection, schedule: Q01DX Z (ip), vehicle: saline 98 % of control | dose: 30.0 mg/kg/injection, schedule: Q01DX Z (ip), vehicle: saline 97 % of control | dose: 100.0 mg/kg/injection, schedule: Q01DX Z (ip), vehicle: saline 90 % of control

CC(C)=CC(=O)NC(=O)NS(=O)(=O)c1ccc(C)cc1
inactive: [10] 91 % of control | [11] 95 % of control | [7] 115 % of control | [8] 104 % of control

Source: PubChem BioAssay AID248 (DTP/NCI, 2004)
